Article PMC5753150 (Beilstein Journal of Organic Chemistry, 2017)
“Also recorded” adds a separate entry of the source. *1 amine or outer side, *2 acyl side, *3 side chain or, on linkers, in order; H or OH if unused. Where a SMILES comes first, the peptide text is derived from it. [ ]: non-standard residue; d: D form. Leu(5,5,5,5',5',5'-F6) = N[C@@H](CC(C(F)(F)F)C(F)(F)F)C(=O)O; X1 = C[C@@H](CC(F)(F)F)[C@H](N[*:1])C(=O)[*:2]; 2Abz = Nc1ccccc1C(=O)O

How the values were obtained:
[1] = molecular target: T1, α-chymotrypsin (EC 3.4.21.1) (Bos taurus, UniProt P00766); assay: Protease digestion assay with α-chymotrypsin (FL-RP-HPLC); assay type: in vitro ADME, bovine; details: for Percentage of substrate remaining after incubation for 24 h: α-chymotrypsin (bovine pancreas), 10 mM phosphate buffer pH 7.4 with DMSO, 30 °C, FL-RP-HPLC peak integration (Abz, λex 320/λem 420 nm), average of three independent measurements; for Gain in proteolytic stability upon fluorination compared to the non-fluorinated (Leu or Ile) analogue: after 24 h
T1 construct: purchased Sigma Aldrich; host or cells: bovine pancreas
Protocol: (§1) The FA peptide was used as a reference. […] All experiments were performed in triplicate.
(§2) The used linear gradients are
(§3) chromatograms where an insufficient baseline separation was observed,
(§4) (proteinase K)]. The obtained data were analyzed with EZChrom Elite software
(§5) Method Time [min] Water + 0.1% (v/v) TFA [%] ACN + 0.1% (v/v) TFA [%]

[2] = tested on: elastase (from porcine pancreas, EC 3.4.21.36); assay: elastase in 100 mM Tris/HCl buffer, pH 8.4; details: 37 °C, up to 24 h
[3] = tested on: proteinase K (EC 3.4.21.64); assay: proteinase K in 50 mM Tris/HCl buffer, containing 10 mM CaCl2 pH 7.5; details: tritirachium album, 37 °C, up to 24 h
[4] = tested on: α-chymotrypsin (EC 3.4.21.1); assay: α-chymotrypsin in 10 mM phosphate buffer, pH 7.4; details: bovine pancreas, 30 °C, up to 24 h
elastase (EC 3.4.21.36) [5] = assay: elastase in 100 mM Tris/HCl buffer, pH 8.4; details: porcine pancreas, 37 °C, up to 24 h
pepsin (EC 3.4.23.1) [6] = assay: pepsin in 10 mM acetate buffer, pH 4.0; details: porcine stomach mucosa, 30 °C, up to 24 h
in vitro = details: pig, pepsin from porcine stomach mucosa, pH 4
Protocol: (§6) The course of proteolytic digestion was characterized by an analytical HPLC-assay with fluorescence detection. For quantification of substrate degradation, integration of the corresponding HPLC peak was conducted. Cleavage products were identified by ESI–ToF mass spectrometry (see Supporting Information File 1, Tables S4–S7).
(§7) All peptides employed in the degradation studies were used as the TFA salts obtained after lyophilization. Stock solutions of α-chymotrypsin (from bovine pancreas, EC 3.4.21.1, ≥40.0 units/mg of protein, Sigma Aldrich, St. Louis, MO, USA), and pepsin (from porcine stomach mucosa, EC 3.4.23.1, ≥250 units/mg of protein, Sigma Aldrich, St. Louis, MO, USA) were prepared at concentrations of 1 mg/mL in phosphate buffer (10 mM, pH 7.4), or in acetate buffer (10 mM, pH 4.0), respectively. For proteinase K (from tritirachium album, EC 3.4.21.64, ≥30 units/mg of protein, Sigma Aldrich, St. Louis, MO, USA) and elastase (from porcine pancreas, EC 3.4.21.36, 6.2 units/mg of protein, Sigma Aldrich, St. Louis, MO, USA) stock solutions were prepared also at concentrations of 1 mg/mL in tris/HCl (50 mM) + CaCl2 (10 mM) buffer (pH 7.5), or in tris/HCl buffer (100 mM, pH 8.4), respectively. Peptides (0.002 mmol) were prepared as stocks in DMSO (100 µL) and incubated with the respective enzyme at 30 °C (for α-chymotrypsin and pepsin) or 37 °C (for proteinase K and elastase) with shaking at 300 rpm in a thermomixer over a period of 24 h. The reaction mixture consisted of DMSO (15 µL), corresponding buffer (25 µL), peptide solution (5 µL) and the corresponding enzyme solution (5 µL). […] Aliquots of 5 µL were taken at fixed time points (0, 15, 30, 60, 90, 120 min as well as 3 h and 24 h) and either quenched with ACN containing 0.1% (v/v) TFA (95 µL), in the case of α-chymotrypsin, proteinase K and elastase, or 2% aqueous ammonia (95 µL), in the case of pepsin. All samples were subjected to analytical HPLC on a LaChrom-ELITE-HPLC-System equipped with a fluorescence detector (VWR International Hitachi, Darmstadt, Germany). A monolithic reversed-phase C8 Chromolith® Performance HPLC column (100 × 4.6 mm, Merck KGaA, Darmstadt, Germany) was used to resolve and quantify the products of digestion. The used system and gradients are described in detail in Supporting Information File 1. Detection based on the Abz label was carried out using a fluorescence detector with λex = 320 nm and λem = 420 nm. In all cases, the peaks corresponding to the starting materials (full-length peptides) or the N-terminal fragments (products) were integrated and used to determine the velocity of the reaction (see Supporting Information File 1). […] Each fragment cleaved from the full-length peptide was identified by ESI–ToF mass analysis on an Agilent 6220 ESI–ToF–MS spectrometer (Agilent Technologies, Santa Clara, CA, USA, see Supporting Information File 1). All experiments were performed in triplicate.
(§8) 2130) with solvent degasser, an autosampler (L-2200) with a 100 µL sample loop, a diode array flow detector (L-2455), a fluorescence detector (L-2485) and a high pressure gradient mixer. As eluents water and ACN, both containing 0.1% (v/v) TFA were used, and a flow rate of 3 mL/min was applied. The used linear gradients are […]
(§9) For the non-fluorinated peptides method A was used to follow the digestion process, and for the fluorinated peptides method B was applied. For […]
(§10) The obtained data were analyzed with EZChrom Elite software
(§11) (version 3.3.2, Agilent Technologies, Santa Clara, CA, USA).

pepsin (EC 3.4.23.1) [7] = molecular target: pepsin (EC 3.4.23.1) (Sus scrofa, UniProt P00791); assay: in vitro; details: for Percentage of substrate remaining after incubation for 24 h: pepsin (porcine stomach mucosa), 10 mM acetate buffer pH 4.0 with DMSO, 30 °C, FL-RP-HPLC peak integration (Abz, λex 320/λem 420 nm), average of three independent measurements
Sequence of pepsin (EC 3.4.23.1) (Sus scrofa, UniProt P00791) (P00791 60-385): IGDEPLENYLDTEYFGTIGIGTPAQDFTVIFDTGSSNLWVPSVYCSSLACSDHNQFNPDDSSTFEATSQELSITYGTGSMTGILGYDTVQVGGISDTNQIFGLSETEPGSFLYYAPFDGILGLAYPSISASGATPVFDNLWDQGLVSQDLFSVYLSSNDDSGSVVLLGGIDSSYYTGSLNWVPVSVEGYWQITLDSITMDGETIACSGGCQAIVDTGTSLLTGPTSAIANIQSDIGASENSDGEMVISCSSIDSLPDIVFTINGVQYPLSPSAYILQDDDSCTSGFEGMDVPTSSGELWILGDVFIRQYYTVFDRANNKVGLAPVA
Protocol: as §6, §7, §8, §9, §10, §11

[8] = molecular target: T2, proteinase K (EC 3.4.21.64) (Parengyodontium album, UniProt P06873); assay: Protease digestion assay with proteinase K (FL-RP-HPLC); assay type: in vitro ADME, tritirachium album; details: for Gain in stability upon fluorination compared to the non-fluorinated analogue, 120 min: after 120 min
T2 construct: purchased Sigma Aldrich; host or cells: Tritirachium album
T2 sequence (P06873 106-384): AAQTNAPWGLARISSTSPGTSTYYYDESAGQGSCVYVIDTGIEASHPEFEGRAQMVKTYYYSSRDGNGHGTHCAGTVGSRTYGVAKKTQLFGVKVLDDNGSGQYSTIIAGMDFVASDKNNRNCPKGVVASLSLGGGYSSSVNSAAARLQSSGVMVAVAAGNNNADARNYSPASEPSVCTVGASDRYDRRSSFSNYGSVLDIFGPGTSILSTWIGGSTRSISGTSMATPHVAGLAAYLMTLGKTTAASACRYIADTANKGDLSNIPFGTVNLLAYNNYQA
Protocol: as §1, §2, §3, §4, §5

elastase (EC 3.4.21.36) [9] = molecular target: elastase (EC 3.4.21.36) (Sus scrofa, UniProt P00772)
Sequence of elastase (EC 3.4.21.36) (Sus scrofa, UniProt P00772) (P00772 27-266): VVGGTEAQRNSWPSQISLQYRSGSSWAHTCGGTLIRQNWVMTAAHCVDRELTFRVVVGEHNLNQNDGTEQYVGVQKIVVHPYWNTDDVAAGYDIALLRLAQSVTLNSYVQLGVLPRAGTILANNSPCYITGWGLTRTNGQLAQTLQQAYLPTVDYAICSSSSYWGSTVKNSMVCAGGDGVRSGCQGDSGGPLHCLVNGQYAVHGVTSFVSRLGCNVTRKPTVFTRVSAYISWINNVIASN
Protocol: as §6, §7, §8, §9, §10, §11

[10] = α-chymotrypsin, 10 mM phosphate buffer pH 7.4, 30 °C, FL-RP-HPLC
[11] = proteinase K, 50 mM Tris/HCl + 10 mM CaCl2 pH 7.5, 37 °C, 120 min, FL-RP-HPLC
[12] = α-chymotrypsin, 10 mM phosphate buffer pH 7.4, 30 °C, FL-RP-HPLC, three independent measurements
[13] = pepsin, 10 mM acetate buffer pH 4.0, 30 °C, 120 min, FL-RP-HPLC
[14] = proteinase K, 50 mM Tris/HCl + 10 mM CaCl2 pH 7.5, 37 °C
[15] = elastase (porcine pancreas), 100 mM Tris/HCl buffer pH 8.4 with DMSO, 37 °C, FL-RP-HPLC, mean of three independent measurements
[16] = pepsin, 10 mM acetate buffer pH 4.0, 30 °C, after 24 h

Molecule: C[C@H](NC(=O)[C@H](C)NC(=O)[C@H](C)NC(=O)[C@H](Cc1ccccc1)NC(=O)[C@H](CC(C(F)(F)F)C(F)(F)F)NC(=O)[C@H](C)NC(=O)[C@H](CCCCN)NC(=O)c1ccccc1N)C(=O)N[C@@H](C)C(=O)N[C@@H](CCCCN)C(=O)O [P2-HfLeuFA] (H-[2Abz]KA[Leu(5,5,5,5',5',5'-F6)]FAAAAK-OH)
- gain in stability vs non-fluorinated analogue after 24 h: 19%
- Percentage of substrate remaining after incubation for 24 h ([1]; 24 h): not digested at all
- Gain in proteolytic stability upon fluorination compared to the non-fluorinated (Leu or Ile) analogue [1, 10]: ~100%

Molecule: Abz-KAAFALeuAAK
- not cleaved [2]: no fragments with Phe in P1 observed
- cleaved bond [3]: A-F and Leu-A
- cleaved bond [4]: F-A, major
- cleaved bond (elastase (EC 3.4.21.36) [5]): A-A and A-Leu and A-K
- cleaved bond (pepsin (EC 3.4.23.1) [6]): F-A

Molecule: C[C@H](NC(=O)[C@H](C)NC(=O)[C@H](CC(C(F)(F)F)C(F)(F)F)NC(=O)[C@H](C)NC(=O)[C@H](Cc1ccccc1)NC(=O)[C@H](C)NC(=O)[C@H](C)NC(=O)[C@H](CCCCN)NC(=O)c1ccccc1N)C(=O)N[C@@H](CCCCN)C(=O)O [P2’-HfLeuFA] (H-[2Abz]KAAFA[Leu(5,5,5,5',5',5'-F6)]AAK-OH)
- remaining at 24 h, 2 mM (in vitro): ~76%
- Peptide digested (hydrolysis) after 120 min (pepsin (EC 3.4.23.1) [7]; pepsin, 10 mM acetate buffer pH 4.0, 30 °C, 120 min, FL-RP-HPLC, enzyme concentration optimized to about 40% hydrolysis of FA): up to 5%
- Degradation state after incubation for 120 min [8, 11]: almost completely degraded
- Percentage of substrate remaining after incubation for 24 h ([1]; 24 h): up to 44%
- Proteolytic stability compared to control peptide FA after 120 min [1, 12]: more stable against digestion

Molecule: Abz-KAAFATfIleAAK [P2’-TfIleFA]
- Percentage of substrate remaining after incubation for 24 h (pepsin (EC 3.4.23.1) [7]; 24 h): completely digested
- Proteolytic stability compared to control peptide FA after 120 min (pepsin (EC 3.4.23.1) [7]; [13]): degraded faster than the control FA
- Gain in stability upon fluorination compared to the non-fluorinated analogue, 120 min [8, 14]: around 12%
- Degradation state after incubation for 120 min (elastase (EC 3.4.21.36) [9]; [15]): somewhat digested

Molecule: C[C@H](NC(=O)[C@H](C)NC(=O)[C@H](C)NC(=O)[C@H](Cc1ccccc1)NC(=O)[C@@H](NC(=O)[C@H](C)NC(=O)[C@H](CCCCN)NC(=O)c1ccccc1N)[C@@H](C)CC(F)(F)F)C(=O)N[C@@H](C)C(=O)N[C@@H](CCCCN)C(=O)O [P2-TfIleFA] (H-[2Abz]KA[X1]FAAAAK-OH)
- remaining at 24 h, 2 mM (in vitro): 100%
- Gain in proteolytic stability upon fluorination compared to the non-fluorinated analogue, 24 h (pepsin (EC 3.4.23.1) [7]; [16]): 100%
- Percentage of substrate remaining after incubation for 24 h ([8]; proteinase K (tritirachium album), 50 mM Tris/HCl buffer containing 10 mM CaCl2 pH 7.5 with DMSO, 37 °C, 24 h, FL-RP-HPLC peak integration (Abz fluorescence), mean of three independent measurements): still left; also recorded: remarkably stable
- Gain in stability upon fluorination compared to the non-fluorinated analogue, 120 min [8, 14]: 60%
- gain in stability vs non-fluorinated analogue after 24 h: 35%
- Percentage of substrate remaining after incubation for 24 h ([1]; 24 h): not digested at all
- Gain in proteolytic stability upon fluorination compared to the non-fluorinated (Leu or Ile) analogue [1, 10]: 50%

Molecule: C[C@H](NC(=O)[C@H](C)NC(=O)[C@H](CC(C(F)(F)F)C(F)(F)F)NC(=O)[C@H](Cc1ccccc1)NC(=O)[C@H](C)NC(=O)[C@H](C)NC(=O)[C@H](CCCCN)NC(=O)c1ccccc1N)C(=O)N[C@@H](C)C(=O)N[C@@H](CCCCN)C(=O)O [P1’-HfLeuFA] (H-[2Abz]KAAF[Leu(5,5,5,5',5',5'-F6)]AAAK-OH)
- Proteolytic stability compared to control peptide FA after 120 min (pepsin (EC 3.4.23.1) [7]; [13]): same persistence
- Proteolytic stability compared to control peptide FA after 24 h (pepsin (EC 3.4.23.1) [7]; pepsin, 10 mM acetate buffer pH 4.0, 30 °C, 24 h, FL-RP-HPLC): somewhat more stable than the control FA
- Stabilization upon fluorination compared to the non-fluorinated analogue, 120 min (pepsin (EC 3.4.23.1) [7]; pepsin, 10 mM acetate buffer pH 4.0, 30 °C, after 120 min): about 20%
- Destabilization compared to the hydrocarbon analogue, 24 h (pepsin (EC 3.4.23.1) [7]; [16]): 17%
- Gain in proteolytic stability upon fluorination compared to the non-fluorinated (Leu or Ile) analogue [1, 10]: better substrate than the non-fluorinated Leu peptide
- Proteolytic stability compared to control peptide FA after 24 h (elastase (EC 3.4.21.36) [9]; elastase, 100 mM Tris/HCl buffer pH 8.4, 37 °C, 24 h, FL-RP-HPLC): more stable than the control peptide FA
- Gain in stability upon fluorination compared to the non-fluorinated (Leu or Ile) analogue, 24 h (elastase (EC 3.4.21.36) [9]; elastase, 100 mM Tris/HCl buffer pH 8.4, 37 °C, after 24 h): 85%

Molecule: CC[C@H](C)[C@H](NC(=O)[C@H](C)NC(=O)[C@H](Cc1ccccc1)NC(=O)[C@H](C)NC(=O)[C@H](C)NC(=O)[C@H](CCCCN)NC(=O)c1ccccc1N)C(=O)N[C@@H](C)C(=O)N[C@@H](C)C(=O)N[C@@H](CCCCN)C(=O)O [P2’-IleFA] (H-[2Abz]KAAFAIAAK-OH)
- Percentage of substrate remaining after incubation for 24 h (pepsin (EC 3.4.23.1) [7]; 24 h): completely digested
- Proteolytic stability compared to control peptide FA after 120 min (pepsin (EC 3.4.23.1) [7]; [13]): degraded faster than the control FA
- Proteolytic stability compared to control peptide FA after 120 min [8, 11]: as stable as FA
- Proteolytic stability compared to control peptide FA after 120 min [1, 12]: more stable against digestion
- Proteolytic stability compared to control peptide FA after 24 h ([1]; α-chymotrypsin, 10 mM phosphate buffer pH 7.4, 30 °C, 24 h, FL-RP-HPLC, three independent measurements): accelerated proteolysis compared to FA
- Degradation state after incubation for 120 min (elastase (EC 3.4.21.36) [9]; [15]): somewhat digested
- Percentage of substrate remaining after incubation for 24 h (elastase (EC 3.4.21.36) [9]; elastase (porcine pancreas), 100 mM Tris/HCl buffer pH 8.4 with DMSO, 37 °C, 24 h, FL-RP-HPLC peak integration (Abz fluorescence), mean of three independent measurements): almost complete proteolysis
